In patent US7390910B2, “Compounds for treating tumors” (priority 2003, dated 2008):
Marks after values point to notes of the source that are not given here.

Assays:
KB cells = test: cells; type: cell-based; conditions: for IC50: 3 days, SRB
Method: (§1) Cell Survival Assay: Standard Pharmacological Test Procedure. […] Compounds are incubated with cells for 3 days.

KB85 = test: cells; type: cell-based; conditions: 3 days, SRB
Method: as §1

KBV1 = test: cells; type: cell-based; conditions: for inhibition at 3 µM: KB-V1, 3000 nM; for IC50: 3 days, SRB
Method: as §1

[1] = system: bovine microtubule-associated protein (MAP)-rich tubulin; type: biochemical
In short: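 MAP-rich bovine tubulin at 1.5 mg/ml final was dissolved in cold PEM buffer (80 mM Na-PIPES pH 6.9, 1 mM MgCl2, 1 mM EGTA) with 1 mM GTP, then centrifuged at 12,000×g for 10 min at 4° C. Aliquots of 100 μl were added quickly to a low-volume 96-well plate holding duplicate 10 μl compound samples. Absorbance at 340 nm was read each minute for 60 min at 24° C.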

Colo205 = test: Cell survival assay (SRB), Colo205; type: cell-based; conditions: Homo sapiens, COLO 205, 72 h, Colo205 cells, 3 days
Method: as §1

Molecule	IC50 (KB cells; Homo sapiens, KB, 72 h)	IC50 (KB85; 72 h)	Tubulin Polym. % inhibition at 0.3 uM [1]	IC50 (Colo205)	IC50 (KB cells)	IC50 (KB85)	IC50 (KBV1)	IC50 (KBV1; Homo sapiens, KB-V1, 72 h)	other results
CN[C@H](C(=O)N[C@H](C(=O)N(C)[C@H](/C=C(\C)C(=O)NO)C(C)C)C(C)(C)C)C(C)(C)c1ccccc1 [Example 25, (E,4S)-4-[((2S)-3,3-dimethyl-2-{[(2S)-3-methyl-2-(methylamino)-3-phenylbutanoyl]amino}butanoyl)(methyl)amino]-N-hydroxy-2,5-dimethyl-2-hexenamide]	39 nM	227 nM	75%	20 nM	–	–	–	–	inhibition at 3 µM (KBV1; Homo sapiens): 7%
CN[C@H](C(=O)N[C@H](C(=O)N(C)[C@H](/C=C(\C)[C@H](O)c1ccccc1)C(C)C)C(C)(C)C)C(C)(C)c1ccccc1 [Example 76, N,β,β-trimethyl-L-phenylalanyl-N-1-[(1S,2E,4S)-4-hydroxy-1-isopropyl-3-methyl-4-phenylbut-2-enyl}-N-1,3-dimethyl-L-valinamide]	–	–	–	–	16 nM	22 nM	190 nM	–	Tubulin Polym. % inhibition at 0.5 uM [1]: 63*** %
CN[C@H](C(=O)N[C@H](C(=O)N(C)[C@H](/C=C(\C)C(O)c1nccs1)C(C)C)C(C)(C)C)C(C)(C)c1ccccc1 (stereo partly drawn) [Example 77, N,β,β-trimethyl-L-phenylalanyl-N-1-[(1S,2E)-4-hydroxy-1-isopropyl-3-methyl-4-(1,3-thiazol-2-yl)but-2-enyl]-N-1-,3-dimethyl-L-valinamide]	–	–	97%	–	13 nM	19 nM	364 nM	–	–
CN[C@H](C(=O)N[C@H](C(=O)N(C)[C@H](/C=C(\C)C(C)O)C(C)C)C(C)(C)C)C(C)(C)c1ccccc1 (stereo partly drawn) [Example 78, N,β,β-trimethyl-L-phenylalanyl-N-1-[(1S,2E)-4-hydroxy-1-isopropyl-3-methylpent-2-enyl]-N-1,3-dimethyl-L-valinamide]	–	–	75%	–	63 nM	172 nM	1460 nM	–	–
CNC(C(=O)NC(C(=O)N(C)C(C=C(C)C=C(C)C(=O)O)C(C)C)C(C)(C)C)C(C)(C)c1ccccc1 (centres unmarked) [Example 79, 6-{[3,3-Dimethyl-2-(3-methyl-2-methylamino-3-phenyl-butyrylamino)-butyryl]-methyl-amino}-2,4,7-trimethyl-octa-2,4-dienoic acid]	27 nM	53 nM	–	–	–	–	–	1580 nM	Tubulin Polym. % inhibition at 0.5 uM [1]: 90*** %
CN[C@H](C(=O)N[C@H](C(=O)N(C)[C@H](/C=C(\C)C(=O)c1ccccc1)C(C)C)C(C)(C)C)C(C)(C)c1ccccc1 [Example 80, N,β,β-trimethyl-L-phenylalanyl-N-1-[(1S,2E)-1-isopropyl-3-methyl-4-oxo-4-phenylbut-2-enyl]-N-1,3-dimethyl-L-valinamide]	–	–	70%	–	725 nM	1330 nM	1800 nM	–	–
CN[C@H](C(=O)N[C@H](C(=O)N(C)[C@H](/C=C(\C)CO)C(C)C)C(C)(C)C)C(C)(C)c1ccccc1 [Example 81]	–	–	71%	–	454 nM	447 nM	1590 nM	–	–
CN[C@H](C(=O)N[C@H](C(=O)N(C)[C@H](/C=C(\C)C=O)C(C)C)C(C)(C)C)C(C)(C)c1ccc([S+](C)C)cc1.O=C(O)C(F)(F)F [Example 83, 4-(dimethylsulfonio)-N,β,β-trimethyl-L-phenylalanyl-N^1-[(1S,2E)-1-isopropyl-3-methyl-4-oxo-2-butenyl]-N^1,3-dimethyl-L-valinamide trifluoroacetic acid]	–	–	0%	46 nM	–	–	–	2400 nM	IC50 (KBV1; trifluoroacetic acid): > 3000 nM
CN[C@H](C(=O)N[C@H](C(=O)N(C)[C@H](/C=C1\NC(=O)NC1=O)C(C)C)C(C)(C)C)C(C)(C)c1ccccc1 [Example 85, N,β,β-trimethyl-L-phenylalanyl-N^1-{(1S)-1-[(Z)-(2,5-dioxo-4-imidazolidinylidene)methyl]-2-methylpropyl}-N^1,3-dimethyl-L-valinamide]	1070 nM	1740 nM	59%	–	–	–	–	–	inhibition at 3 µM (KBV1; Homo sapiens): 10%
CN[C@H](C(=O)N[C@H](C(=O)N(C)[C@H](/C=C/c1nnn[nH]1)C(C)C)C(C)(C)C)C(C)(C)c1ccccc1 [Example 86, (2S)-N-[(1S,2E)-1-isopropyl-3-(1H-tetraazol-5-yl)-2-propenyl]-N,3,3-trimethyl-2-{[(2S)-3-methyl-2-(methylamino)-3-phenylbutanoyl]amino}butanamide]	1150 nM	1820 nM	31%	71 nM	–	–	–	–	inhibition at 3 µM (KBV1; Homo sapiens): 5%
CN[C@H](C(=O)N[C@H](C(=O)N(C)[C@H](/C=C(\C)C(=O)c1ncc[nH]1)C(C)C)C(C)(C)C)C(C)(C)c1ccccc1 [Example 88, (2S)-N-[(1S,2E)-4-(1H-imidazol-2-yl)-1-isopropyl-3-methyl-4-oxobut-2-enyl]- -trimethyl-2-{[(2S)-3-methyl-2-(methylamino)-3-phenylbutanoyl]amino}butanamide]	–	–	91%	–	218 nM	1360 nM	–	–	KBV1 % inhibition @ 3000 nM (KBV1; 3000 nM): 0%
CN[C@H](C(=O)N[C@H](C(=O)N(C)[C@H](/C=C1/C(=O)NC(=O)N1C)C(C)C)C(C)(C)C)C(C)(C)c1ccccc1 [Example 89, N,β,β-trimethyl-L-phenylalanyl-N^1,3-dimethyl-N^1-{(1S)-2-methyl-1-[(Z)-(3-methyl-2,5-dioxoimidazolidin-4-ylidene)methyl]propyl}-L-valinamide]	5.1 nM	9.9 nM	95%	–	–	–	–	230 nM	–
CNC(C(=O)NC(C(=O)N(C)C(C=C(C)C(=O)CO)C(C)C)C(C)(C)C)C(C)(C)c1ccccc1 (centres unmarked) [Example 90, N-{1-[(5-Hydroxy-1-isopropyl-3-methyl-4-oxo-pent-2-enyl)-methyl-carbamoyl]-2,2-dimethyl-propyl}-3-methyl-2-methylamino-3-phenyl-butyramide]	43 nM	68 nM	–	–	–	–	–	1130 nM	Tubulin Polym. % inhibition at 0.5 uM [1]: 76*** %
CCOC(=O)/C(C)=C/[C@H](C(C)C)N(C)C(=O)[C@@H](NC(=O)[C@@H](C)C(C)(C)c1ccccc1)C(C)(C)C [Example 91, Ethyl (E,4S)-4-[((2S)-2-{[(2S)-2,3-dimethyl-3-phenylbutanoyl]amino}-3,3-dimethylbutanoyl)(methyl)amino]-2,5-dimethyl-2-hexenoate]	–	> 3000 nM	–	> 1000 nM	–	–	–	> 3000 nM	inhibition at 3 µM (KB cells; Homo sapiens, 72 h, 3000 nM): 21%; Tubulin Polym. % inhibition at 2 uM ([1]; 2 uM): 84**** %
CCOC(=O)/C(C)=C/[C@H](C(C)C)N(C)C(=O)[C@@H](NC(=O)C(Cc1ccccc1)C(C)(C)c1ccccc1)C(C)(C)C (stereo partly drawn) [Example 95, Ethyl (E,4S)-4-[((2S)-3,3-dimethyl-2-{[3-methyl-2-(benzyl)-3-phenylbutanoyl]amino}butanoyl)(methyl)amino]-2,5-dimethyl-2-hexenoate]	575 nM	756 nM	–	> 1000 nM	–	–	–	–	inhibition at 3 µM (KBV1; Homo sapiens): 15%
C=CCC(C(=O)N[C@H](C(=O)N(C)[C@H](/C=C(\C)C(=O)OCC)C(C)C)C(C)(C)C)C(C)(C)c1ccccc1 (stereo partly drawn) [Example 97, Ethyl (E,4S)-4-[((2S)-3,3-dimethyl-2-{[3-methyl-2-allyl-3-phenylbutanoyl]amino}butanoyl)(methyl)amino]-2,5-dimethyl-2-hexenoate]	1910 nM	3320 nM	–	> 1000 nM	–	–	–	–	KBV1 % inhibition @6000 (KBV1): 17%@6000
CCOC(=O)/C(C)=C/[C@H](C(C)C)N(C)C(=O)[C@@H](NC(=O)C(CC)C(C)(C)c1ccccc1)C(C)(C)C (stereo partly drawn) [Example 99, Ethyl (E,4S)-4-[((2S)-3,3-dimethyl-2-{[3-methyl-2-ethyl-3-phenylbutanoyl]amino}butanoyl)(methyl)amino]-2,5-dimethyl-2-hexenoate]	3480 nM	3640 nM	–	> 1000 nM	–	–	–	–	KBV1 % inhibition @6000 (KBV1): 16%@6000
CCOC(=O)/C(C)=C/[C@H](C(C)C)N(C)C(=O)[C@@H](NC(=O)C(SC)C(C)(C)c1ccccc1)C(C)(C)C (stereo partly drawn) [Example 101, Ethyl (E,4S)-4-[((2S)-3,3-dimethyl-2-{[3-methyl-2-methylsulfanyl-3-phenylbutanoyl]amino}butanoyl)(methyl)amino]-2,5-dimethyl-2-hexenoate]	1100 nM	1820 nM	–	> 1000 nM	–	–	–	4580 nM	–
N,β,β-trimethyl-L-phenylalanyl-N^1-[(1S,2E)-1-isopropyl-4-((2S)-2-{(1R,2R)-1-methoxy-2-methyl-3-[(4R,5S)-4-methyl-2-oxo-5-phenyl-1,3-oxazolidin-3-yl]-3-oxopropyl}pyrrolidin-1-yl)-3-methyl-4-oxovalinamide [Example 32]	–	–	99(2) %	–	12 nM	45 nM	636 nM	–	–
N,β,β-trimethyl-L-phenylalanyl-N^1-{(1S,2E)-4-[(2S)-2-(2-phenethoxycarbonyl)pyrrolidin-1-yl]-1-isopropyl-3-methyl-4-oxobut-2-enyl}-N^1,3-dimethyl-L-valinamid [Example 37]	–	–	86%	–	6.4 nM	21 nM	1640 nM	–	–
